Laboratory results reported in a compilation of properties of binary mixtures (doi:10.1016/j.molliq.2017.03.027).

Assay: xn = mol fraction of the nth substance listed
Conditions: 100 kPa

CO + CCCC[n+]1ccn(C)c1.O=S(=O)([N-]S(=O)(=O)C(F)(F)F)C(F)(F)F
x1 = 1
Conditions	speed of sound [m/s]	viscosity [mPa·s]
298.15 K	1103.3	0.55
303.15 K	1086.9	0.51
308.15 K	1070.6	0.48
313.15 K	1054.5	0.45
318.15 K	1038.5	0.42
323.15 K	1022.5	0.41

CS(C)=O + CCCC[n+]1ccn(C)c1.O=S(=O)([N-]S(=O)(=O)C(F)(F)F)C(F)(F)F
Conditions	speed of sound [m/s]	viscosity [mPa·s]
298.15 K, x1 = 0.0951	1232.7	40.36
298.15 K, x1 = 0.2074	1239.8	33.72
298.15 K, x1 = 0.2885	1246	28.98
298.15 K, x1 = 0.4003	1257.9	22.18
298.15 K, x1 = 0.5026	1269.8	17.18
298.15 K, x1 = 0.7066	1299.3	8.91
298.15 K, x1 = 0.8039	1329	5.97
298.15 K, x1 = 0.9012	1384.8	3.51
298.15 K, x1 = 1	1490.5	2.03
303.15 K, x1 = 0.0951	1221.2	32.94
303.15 K, x1 = 0.2074	1228.1	27.62
303.15 K, x1 = 0.4003	1245.8	18.3
303.15 K, x1 = 0.5903	1267.6	11.04
303.15 K, x1 = 0.7066	1286.2	8.01
303.15 K, x1 = 0.8039	1315.2	5.17
303.15 K, x1 = 0.9012	1369.9	3.15
303.15 K, x1 = 1	1473.6	1.84
308.15 K, x1 = 0.0951	1209.8	26.98
308.15 K, x1 = 0.2074	1216.8	22.9
308.15 K, x1 = 0.2885	1222.7	19.59
308.15 K, x1 = 0.4003	1233.9	15.42
308.15 K, x1 = 0.5026	1245.1	11.71
308.15 K, x1 = 0.7066	1273.2	6.73
308.15 K, x1 = 0.8039	1301.4	4.62
308.15 K, x1 = 0.9012	1355	2.84
313.15 K, x1 = 0.2885	1211.1	17.04
313.15 K, x1 = 0.4003	1221.8	13.35
313.15 K, x1 = 0.5026	1232.9	10.62
313.15 K, x1 = 0.7066	1260.2	5.96
313.15 K, x1 = 0.8039	1287.7	4.17
313.15 K, x1 = 0.9012	1340.2	2.57
318.15 K, x1 = 0.0951	1187.5	19.53
318.15 K, x1 = 0.2074	1194.2	16.67
318.15 K, x1 = 0.2885	1199.7	14.57
318.15 K, x1 = 0.4003	1210.1	11.47
318.15 K, x1 = 0.5026	1220.8	8.84
318.15 K, x1 = 0.5903	1229.8	7.4
318.15 K, x1 = 0.7066	1247.2	5.63
318.15 K, x1 = 0.8039	1274.4	3.71
318.15 K, x1 = 0.9012	1325.4	2.33
318.15 K, x1 = 1	1423.3	1.41
323.15 K, x1 = 0.0951	1176.3	16.81
323.15 K, x1 = 0.2074	1182.9	14.37
323.15 K, x1 = 0.2885	1188.1	12.56
323.15 K, x1 = 0.4003	1198.2	9.96
323.15 K, x1 = 0.5026	1208.5	7.69
323.15 K, x1 = 0.5903	1217.3	6.39
323.15 K, x1 = 0.7066	1233.9	5.01
323.15 K, x1 = 0.8039	1260.4	3.32
323.15 K, x1 = 1	1406.7	1.3

CCCC[n+]1ccn(C)c1.O=S(=O)([N-]S(=O)(=O)C(F)(F)F)C(F)(F)F + CO
Conditions	speed of sound [m/s]	viscosity [mPa·s]
298.15 K, x2 = 0	1227.5	49.6
298.15 K, x2 = 0.2068	1218.3	34.37
298.15 K, x2 = 0.295	1213.6	28.65
298.15 K, x2 = 0.4004	1208.6	22.3
298.15 K, x2 = 0.4923	1202	17.55
298.15 K, x2 = 0.5956	1191.3	12.55
298.15 K, x2 = 0.7947	1159.2	5.11
298.15 K, x2 = 0.8978	1134.4	1.7
303.15 K, x2 = 0.2068	1206.7	28.28
303.15 K, x2 = 0.295	1202.3	23.6
303.15 K, x2 = 0.4923	1190.3	14.6
303.15 K, x2 = 0.5956	1180	10.52
303.15 K, x2 = 0.7056	1164.1	6.79
303.15 K, x2 = 0.7947	1146.7	4.38
303.15 K, x2 = 0.8978	1121.2	1.55
308.15 K, x2 = 0	1205.5	33.25
308.15 K, x2 = 0.0986	1201.6	28.87
308.15 K, x2 = 0.2068	1196	23.61
308.15 K, x2 = 0.295	1192.5	19.98
308.15 K, x2 = 0.4004	1186.7	15.74
308.15 K, x2 = 0.4923	1179.1	12.56
308.15 K, x2 = 0.5956	1169.2	9.2
308.15 K, x2 = 0.7056	1152.6	5.97
308.15 K, x2 = 0.7947	1134.5	3.97
308.15 K, x2 = 0.8978	1108.1	1.42
313.15 K, x2 = 0	1193.5	28
313.15 K, x2 = 0.0986	1190.8	24.53
313.15 K, x2 = 0.2068	1184.4	20.1
313.15 K, x2 = 0.295	1180.8	17.14
313.15 K, x2 = 0.4004	1175.5	13.55
313.15 K, x2 = 0.4923	1168	10.82
313.15 K, x2 = 0.5956	1158.3	8.03
313.15 K, x2 = 0.7056	1141.2	5.28
313.15 K, x2 = 0.7947	1122.6	3.54
313.15 K, x2 = 0.8978	1095.2	1.31
318.15 K, x2 = 0	1183.5	23.75
318.15 K, x2 = 0.2068	1173.6	17.22
318.15 K, x2 = 0.4004	1164.9	11.7
318.15 K, x2 = 0.5956	1147.7	7.01
318.15 K, x2 = 0.7947	1110.5	3.13
318.15 K, x2 = 0.8978	1082.2	1.21
323.15 K, x2 = 0	1171.3	20.39
323.15 K, x2 = 0.0986	1169.3	18.1
323.15 K, x2 = 0.2068	1162.4	14.96
323.15 K, x2 = 0.295	1160	12.89
323.15 K, x2 = 0.4004	1154.4	10.31
323.15 K, x2 = 0.4923	1146.6	8.33
323.15 K, x2 = 0.5956	1137.2	6.21
323.15 K, x2 = 0.7947	1098.7	2.81

CCCC[n+]1ccn(C)c1.O=S(=O)([N-]S(=O)(=O)C(F)(F)F)C(F)(F)F + CS(C)=O
x2 = 0
Conditions	speed of sound [m/s]	viscosity [mPa·s]
298.15 K	1227.5	49.6
308.15 K	1205.5	33.25
313.15 K	1193.5	28
323.15 K	1171.3	20.39
